Measurements as given in patent US6657060B2, “Pyrimidine derivatives” (Hoffman-La Roche Inc., priority 2000, dated 2003).

Biological target: T1, recombinant mouse NPY5-receptor (mNPY5) (Mus musculus, UniProt O70342)
T1 construct: The full-length cDNA encoding the mouse NPY5 (mNPY5) receptor was amplified from mouse brain cDNA; expressed in transfected cells; membranes
T1 sequence (O70342 1-466): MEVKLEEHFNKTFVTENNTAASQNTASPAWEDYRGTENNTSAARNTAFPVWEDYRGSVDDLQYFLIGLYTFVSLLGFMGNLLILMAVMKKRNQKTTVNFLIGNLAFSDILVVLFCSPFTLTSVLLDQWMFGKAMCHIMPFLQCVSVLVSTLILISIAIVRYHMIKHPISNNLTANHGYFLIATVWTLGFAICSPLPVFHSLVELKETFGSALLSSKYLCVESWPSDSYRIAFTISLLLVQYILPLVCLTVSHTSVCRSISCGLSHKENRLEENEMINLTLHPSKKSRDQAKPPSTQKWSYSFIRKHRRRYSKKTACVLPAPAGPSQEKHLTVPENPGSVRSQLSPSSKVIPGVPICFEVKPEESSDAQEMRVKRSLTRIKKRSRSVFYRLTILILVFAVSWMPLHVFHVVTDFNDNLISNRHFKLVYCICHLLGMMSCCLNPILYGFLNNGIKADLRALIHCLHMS
Assay: Radioligand competition binding
Conditions: membranes of HEK293 cells expressing mNPY5; 100 pM [125I]labelled peptide YY (PYY); 1 h at 22° C.
Source text: The full-length cDNA encoding the mouse NPY5 (mNPY5) receptor was amplified from mouse brain cDNA using specific primers, designed based on the published sequence, and Pfu DNA-Polymerase (Stratagene). The amplification product was subcloned into the mammalian expression vector pcDNA3 using Eco RI and XhoI restriction sites. Positive clones were sequenced and one clone, encoding the published sequence was selected for generation of stable cell clones.
Human embryonic kidney 293 (HEK293) cells were transfected with 10 μg mNPY5 DNA using the lipofectamine reagent (Gibco BRL) according to the manufacturer's instruction. Two days after transfection, geneticin selection (1 mg/ml) was initiated and several stable clones were isolated. One clone was further used for pharmacological characterization.
Human embryonic kidney 293 cells (HEK293), expressing recombinant mouse NPY5-receptor (mNPY5) were broken by three freeze/thawing cycles in hypotonic Tris buffer (5 mM, pH 7.4, 1 mM MgCl2), homogenized and centrifuged at 72,000×g for 15 min. The pellet was washed twice with 75 mM Tris buffer, pH 7.4, containing 25 mM MgCl2 and 250 mM sucrose, 0.1 mM phenylmethylsulfonylfluoride and 0.1 mM 1,10-pheneanthrolin, resuspended in the same buffer and stored in aliquots at −80° C. Protein was determined according to the method of Lowry using bovine serum albumine (BSA) as a standard. […]

SMILES	IC50
Cc1cc(N2CCCC2)nc(/C=C/c2cccc(C#N)c2)n1 [Compound 20, (E)-3-[2-(4-methyl-6-pyrrolidin-1-yl-pyrimidin-2-yl)-vinyl]-benzonitrile]	18 nM
Cc1cc(N2CCCC2)nc(/C=C/c2ccc(F)cc2F)n1 [Compound 43, (E)-2-[2-(2,4-difluoro-phenyl)-vinyl]-4-methyl-6-pyrrolidin-1-yl-pyrimidine]	30 nM
